Test results published in the NIST ThermoML archive (doi:10.1021/je101012n).

Assay: mn = molality of the nth substance listed, in mol/kg
Settings: 101 kPa, Liquid, Alternating current cell with electrodes

[Cl-].[Cl-].[Mg+2] [magnesium chloride] + O
electrical conductivity [S/m]
Settings	278.15 K	283.15 K	298.15 K	308.15 K	318.15 K	343.15 K	363.15 K
m1 = 0.000119	0.001861	0.002134	0.002989	0.003553	0.004209	0.006086	0.00764
m1 = 0.000984	0.01481	0.017	0.02432	0.02937	0.03478	0.0501	0.06265
m1 = 0.01137	0.1537	0.176	0.2503	0.302	0.3534	0.5068	0.6347
m1 = 0.09942	1.1	1.256	1.772	2.137	2.515	3.575	4.424
m1 = 0.3609	3.449	3.927	5.491	6.606	7.753	10.94	13.6

Cl.N [ammonium chloride (NH4Cl)] + O
electrical conductivity [S/m]
Settings	278.15 K	283.15 K	298.15 K	308.15 K	318.15 K	343.15 K	363.15 K
m1 = 0.000977	0.008892	0.01017	0.01441	0.01738	0.02024	0.0287	0.03591
m1 = 0.00965	0.0856	0.09786	0.1381	0.1671	0.1938	0.2731	0.3363
m1 = 0.09765	0.7999	0.9148	1.276	1.545	1.801	2.535	3.142
m1 = 0.4735	3.542	4.027	5.525	6.577	7.691	10.75	13.26
m1 = 1.034	7.301	8.293	11.12	13.13	15.36	21.55	25.35

O=[N+]([O-])[O-].O=[N+]([O-])[O-].[Mn+2] [manganese nitrate] + O
electrical conductivity [S/m]
Settings	278.1 K	283.1 K	298.15 K	308.15 K	318.15 K	343.15 K	363.15 K
m1 = 0.000917	0.05151	0.05774	0.07688	0.08959	0.1015	0.1307	0.155
m1 = 0.01047	0.1786	0.2033	0.282	0.3382	0.3934	0.538	0.6651
m1 = 0.086	1.04	1.179	1.63	1.958	2.295	3.125	3.692
m1 = 0.8521	7.064	7.973	10.69	12.54	14.41	19.41	–

[F-].[K+] [potassium fluoride] + O
electrical conductivity [S/m]
Settings	278.15 K	283.15 K	298.15 K	308.15 K	318.15 K	343.15 K	363.15 K
m1 = 0.000325	0.002576	0.002933	0.004125	0.005036	0.005965	0.008448	0.01046
m1 = 0.00109	0.008262	0.009509	0.01357	0.01642	0.01929	0.02734	0.03426
m1 = 0.035	0.2417	0.2829	0.3939	0.4778	0.5576	0.7954	0.9964
m1 = 0.11	0.7375	0.8455	1.195	1.445	1.692	2.409	3.004
m1 = 0.52	3.023	3.435	4.804	5.771	6.801	9.683	11.86
m1 = 0.99	5.272	6.034	8.275	9.907	11.75	16.85	20.13

[Cl-].[K+] [potassium chloride] + O
electrical conductivity [S/m]
Settings	278.15 K	283.15 K	298.15 K	308.15 K	318.15 K	343.15 K	363.15 K
m1 = 0.0001	0.0009464	0.001074	0.001487	0.001786	0.002105	0.002969	0.003716
m1 = 0.001	0.009198	0.0105	0.01471	0.01773	0.0207	0.02897	0.03587
m1 = 0.01	0.0891	0.1014	0.1408	0.1688	0.1977	0.2761	0.3426
m1 = 0.1	0.8184	0.9292	1.283	1.532	1.788	2.471	3.086
m1 = 0.5	3.875	4.375	5.92	6.981	8.107	11.23	13.48
m1 = 1	7.203	8.084	10.86	12.8	14.77	20.25	24.58

O=S(=O)([O-])[O-].O=S(=O)([O-])[O-].O=S(=O)([O-])[O-].[Fe+3].[Fe+3] [ferric sulfate] + O
electrical conductivity [S/m]
Settings	343.15 K	363.15 K
m1 = 0.000104	0.659	0.6888
m1 = 0.000829	0.681	0.718

Cl [hydrogen chloride] + O
electrical conductivity [S/m]
Settings	278.15 K	283.15 K	298.15 K	308.15 K	318.15 K	343.15 K	363.15 K
m1 = 0.00011	0.003313	0.003683	0.004665	0.00531	0.005973	0.007487	0.008461
m1 = 0.000958	0.028	0.03088	0.03978	0.04565	0.05121	0.06414	0.07325
m1 = 0.00937	0.2714	0.3001	0.3869	0.4408	0.4932	0.6227	0.7132
m1 = 0.09398	2.604	2.872	3.684	4.19	4.673	5.872	6.722
m1 = 0.4603	11.98	13.14	16.69	18.97	21.09	26.23	29.87
m1 = 0.85	20.2	22.06	27.9	31.53	34.95	43.45	48.24

O=[N+]([O-])[O-].O=[N+]([O-])[O-].O=[N+]([O-])[O-].[Fe+3] [ferric nitrate] + O
electrical conductivity [S/m]
Settings	278.1 K	283.1 K	298.15 K	308.15 K	318.15 K	343.15 K	363.15 K
m1 = 9.9e-05	–	–	–	–	–	9.086	10.27
m1 = 0.000984	–	–	–	–	–	9.106	10.33
m1 = 0.00985	–	–	–	–	–	9.553	10.91
m1 = 0.09618	5.143	5.777	7.576	8.788	10.15	13.85	16.52
m1 = 0.2534	6.656	7.523	9.984	11.83	14.02	20.32	–

[Cl-].[Li+] [lithium chloride] + O
electrical conductivity [S/m]
Settings	278.15 K	283.15 K	298.15 K	308.15 K	318.15 K	343.15 K	363.15 K
m1 = 8.5e-05	0.0005986	0.0006826	0.0009588	0.00117	0.001388	0.001978	0.002483
m1 = 0.000952	0.006496	0.007487	0.01069	0.01311	0.01528	0.02191	0.02774
m1 = 0.00845	0.05562	0.06414	0.09167	0.1123	0.1315	0.1886	0.2366
m1 = 0.09523	0.5516	0.6326	0.9019	1.099	1.276	1.809	2.257
m1 = 0.9613	4.317	4.986	7.13	8.35	9.794	12.64	15.57

O=S(=O)([O-])[O-].[Ca+2] [calcium sulfate] + O
electrical conductivity [S/m]
Settings	278.15 K	283.15 K	298.15 K	308.15 K	318.15 K	343.15 K	363.15 K
m1 = 7.6e-05	0.00123	0.001409	0.001963	0.002529	0.003011	0.004223	0.00536
m1 = 0.00102	0.01397	0.01601	0.02275	0.02808	0.0325	0.04537	0.05546
m1 = 0.01245	0.1154	0.1331	0.185	0.2255	0.2573	0.3419	0.3973

O=S(=O)(O)O [sulfuric acid] + O
electrical conductivity [S/m]
Settings	278.15 K	283.15 K	298.15 K	308.15 K	318.15 K	343.15 K	363.15 K
m1 = 9.4e-05	0.005493	0.006105	0.007827	0.008931	0.009949	0.01221	0.01367
m1 = 0.000936	0.05201	0.05749	0.07292	0.08174	0.09001	0.1026	0.1058
m1 = 0.00944	0.4321	0.4729	0.5772	0.6319	0.6759	0.7372	0.7698
m1 = 0.09223	3.12	3.444	4.13	4.525	4.885	5.575	6.159
m1 = 0.4664	13.46	14.5	17.37	19.34	20.96	25.62	28.05

O=S(=O)([O-])[O-].[Na+].[Na+] [sodium sulfate] + O
electrical conductivity [S/m]
Settings	278.15 K	283.15 K	298.15 K	308.15 K	318.15 K	343.15 K	363.15 K
m1 = 0.0001	0.001565	0.001807	0.002576	0.003181	0.003786	0.005401	0.00676
m1 = 0.001	0.01463	0.0168	0.02415	0.0292	0.03475	0.05015	0.0633
m1 = 0.01	0.1296	0.1488	0.2128	0.2575	0.3049	0.4381	0.5474
m1 = 0.1001	1	1.148	1.639	1.986	2.347	3.347	4.17
m1 = 0.1989	1.756	2.022	2.882	3.508	4.153	5.946	7.43
m1 = 0.4999	3.383	3.854	5.47	6.708	7.954	11.39	13.7
